Test results published in the NIST ThermoML archive (doi:10.1016/j.jct.2005.06.017).

Experiment: mn = molality of the nth substance listed, in mol/kg
Conditions: 350 kPa, Liquid, Extra sensitive DSC

NCC(=O)O [2-aminoacetic acid] + O
apparent molar heat capacity [J/K/mol]
Conditions | m1 = 0.015 | m1 = 0.03 | m1 = 0.0503 | m1 = 0.0804 | m1 = 0.125 | m1 = 0.2493 | m1 = 0.5056
278.15 K | 8 | – | – | – | – | – | 4.4
283.15 K | 25 | 1 | – | 12.3 | 10.3 | 12.4 | 18.7
288.15 K | 38 | 14 | 11 | 25.5 | 23.6 | 25.3 | 30.5
293.15 K | 50 | 25 | 24 | 36.5 | 34.1 | 35.4 | 40.4
298.15 K | 59 | 33 | 34.8 | 45.4 | 42.9 | 44 | 48.3
303.15 K | 67 | 41 | 43.7 | 52.8 | 50.1 | 51.1 | 55.2
308.15 K | 73 | 48 | 51 | 59.1 | 55.8 | 57 | 60.9
313.15 K | 78 | 54 | 57.3 | 64.5 | 61.3 | 62.4 | 66
318.15 K | 83 | 59 | 62.2 | 68.8 | 65.7 | 66.8 | 70.2
323.15 K | 86 | 63 | 66.8 | 72.7 | 69.3 | 70.6 | 73.9
328.15 K | 90 | 67 | 70.8 | 76 | 72.6 | 73.8 | 77.1
333.15 K | 92 | 70 | 74.5 | 79 | 75.4 | 76.7 | 80
338.15 K | 95 | 73 | 78 | 81.6 | 77.9 | 79.2 | 82.5
343.15 K | 97 | 75 | 80.6 | 83.6 | 80 | 81.3 | 84.6
348.15 K | 99 | 77 | 83.1 | 85.6 | 81.8 | 83.1 | 86.4
353.15 K | 101 | 79 | 85.3 | 87.3 | 83.4 | 84.8 | 88.1
358.15 K | 102 | 81 | 87.1 | 88.9 | 84.8 | 86.2 | 89.5
363.15 K | 103 | 82 | 88.9 | 90.2 | 86 | 87.3 | 90.7
368.15 K | 104 | 83 | 90.2 | 91 | 86.9 | 88.3 | 91.6
373.15 K | 104 | 83 | 91.1 | 91.7 | 87.5 | 89 | 92.4
378.15 K | 104 | 83 | 92.1 | 92.3 | 87.9 | 89.4 | 92.9
383.15 K | 103.9 | 84 | 93.3 | 92.9 | 88.2 | 89.9 | 93.3
388.15 K | 103.5 | 84 | 94.5 | 93.1 | 88.2 | 90 | 93.6
393.15 K | 101.4 | 84 | 95.6 | 92.9 | 87.7 | 89.7 | 93.6
